Counter-ions that a name gives are not always drawn. Like-named read-outs stand apart in the source and are kept apart here. Ends that are not written are not given here. Peptide text beside a SMILES is read from it.

The target in one assay is T1, αIIbβ3 integrin (Homo sapiens, UniProt P05106+P08514).
T1 construct: Human Platelets: Platelet-enriched plasma was obtained commercially from a donor pool; from tissue; host or cells: human platelet-rich plasma from a commercial donor pool
Nature of the assay: ADP-Induced Platelet Aggregation. The class given is cell-based. Particulars: for IC50: ADP 20 uM, human platelets; for ability to inhibit ADP induced platelet aggregation: reference peptides, at 200 μM; for remaining activity at 200 µM: percent of maximal aggregation. The method, then: Measurement of the Effect of Compounds on ADP-Induced Platelet Aggregation
Measuring the effect of compounds on ADP-induced platelet aggregation mediated by a fibrinogen-αIIbβ3 integrin interaction.
Human Platelets: Platelet-enriched plasma was obtained commercially from a donor pool. The plasma was tested prior to shipment and found to be negative for HIV, HCV and Hepatitis B. Platelet-rich plasma (PRP) was obtained by diluting plasma to an approximate final concentration of 3×10(6) platelets per mL in platelet poor plasma (PPP). PPP was the supernatant of a lowspeed centrifugation of plasma.
Adenosine diphosphate (ADP): ADP was obtained commercially and diluted to 1 mM (stock solution) in distilled, deionized water (ddH2O).
Incubation: PRP and PPP were prewarmed in a water bath at 37° C. […] PRP plus sample compound in a final volume of 500 uL was added to a pre-warmed cuvette in a ChronoLog aggregometer. A control containing PRP and 5 uL of vehicle was treated similarly to the test cuvette; final vehicle concentration was 1%. The two cuvettes were incubated with stirring (1000 rpm) at 37° C. for 5 minutes. Five hundred microliters of PPP was used as a reference (100% aggregation).
Aggregation: To begin the test, ADP was added yielding a final concentration of 20 uM to both samples (plus and minus sample compound). Light transmittance was monitored continuously and compared to the reference cuvette. After five minutes, the test was terminated and the slope and maximal amplitude of the resulting aggregation plot was calculated by the aggregometer.
The percent of maximal aggregation is the ratio of the maximal aggregations of the sample cuvette to the control multiplied by 100 (% Max) and reported as the mean+−standard deviation.

Assay [1] addresses T2, Vitronectin Receptor (αVβ3) (Homo sapiens, UniProt P05106+P06756).
T2 construct: expressed in transfected cells; host or cells: 512P5 cells (plasma membrane preparation)
The assay is described as follows: Vitronectin Receptor (αVβ3) Binding Test Procedure.

For another assay, the target named is T3, αVβ3 integrin (Homo sapiens, UniProt P05106+P06756).
T3 construct: αVβ3-expressing cell lines are maintained by standard tissue culture techniques; endogenous in cells; host or cells: αVβ3-expressing cell lines
The assay is described as follows: Osteopontin-αVβ3 Cell Attachment Test Procedure. The class given is cell-based. On the procedure:
Osteopontin-αVβ3 Cell Attachment Test Procedure
Measuring the effect of compounds on the RGD-dependent attachment of cells to osteopontin mediated by the αVβ3 integrin.
Following incubation the wells were aspirated and washed once with D-PBS; plates can either be used immediately or stored for up to 1 week at 4° C. Prior to assay, the wells were blocked with 1% bovine serum albumin (BSA) in cell suspension media for 1 hour at 37° C. Following the blocking period, wells were aspirated and washed once with D-PBS.
αVβ3-expressing cell lines are maintained by standard tissue culture techniques. […] The cells were pelleted by low-speed centrifugation and washed three times with 0.5 mg/mL trypsin inhibitor in D-PBS (Sigma). The final cell pellet was resuspended in cell suspension media at a concentration of 10^6 cells/mL.
Incubation: 100 μL of diluted test compound was added to osteopontin-coated wells (in triplicate) followed by 100 μL of cell suspension; background cell attachment was determined in uncoated wells. The plate was incubated at 25° C. in a humidified air atmosphere for 1.5 hours. Following the incubation period, the wells were gently aspirated and washed once with D-PBS.
Cell Number Detection: The number of cells attached was determined by an MTT dye conversion assay (Promega) according to the manufacturer's instructions. Briefly, MTT dye was diluted in cell suspension media (15:85) and 100 μL was added to each well. […] The assay plates were covered and incubated at 37° C. in a humidified air atmosphere overnight.
The individual well optical density was expressed as a percentage of the maximal attachment (% Max) wells minus background attachment, and reported as the mean ±standard deviation.

The subject of another assay is osteoclasts. Nature of the assay: Osteoclast Bone Pitting. The class given is cell-based, rat. On the procedure: Osteoclast Bone Pitting The test procedure was conducted as described by R. J. Murrills and D. W. […] At this pH the adherent osteoclasts excavate an adequate number of resorption pits for assay purposes. Slices were fixed in 2.5% glutaraldehyde and osteoclasts counted following tartrate-resistant acid phosphatase staining. […] All cells were stripped from the slice by sonication on 0.25M NH4OH and the resorption pits formed by the osteoclasts during the experiment stained with toluidine blue. Resorption pits were quantified by manually counting. The experiments were conducted according to a block design with osteoclasts from each animal exposed to each treatment. Three replicate slices were used per treatment per animal, such that a total of 96 slices were examined for an experiment involving four animals and eight treatments (including control). Several parameters were recorded on a “per slice” basis: number of pits, number of osteoclasts, number of pits per osteoclast, number of fibroblast-like bone cells. SAS or JMP statistical software were used for statistical analysis. […] IC50s were calculated using dose-response curves.

The mark [2] stands for this setting: Table VII, read-out: Platelet Aggregation αIIbβ3 IC50.
Where [3] appears, read: % Max = percentage of the specific binding, read-out: (αVβ3) RECEPTOR BINDING, % @ concentration.
Setting [4] is: @ 100 μM, % of maximal attachment, read-out: (αVβ3) CELL ATTACHMENT, % @ concentration.
The mark [5] stands for this setting: attachment of cells to osteopontin, read-out: (αVβ3) IC50 CELL ATTACHMENT
Where [6] appears, read: reference compounds, Table VI, read-out: IC50 (95% Confidence Interval).
The mark [7] stands for this setting: reference RGD peptides, 125I-Echistatin 50 pM, read-out: IC50.
[8] abbreviates: read-out: (αVβ3) IC50 RECEPTOR BINDING.

T2 sequence (P06756 31-889 limits assumed): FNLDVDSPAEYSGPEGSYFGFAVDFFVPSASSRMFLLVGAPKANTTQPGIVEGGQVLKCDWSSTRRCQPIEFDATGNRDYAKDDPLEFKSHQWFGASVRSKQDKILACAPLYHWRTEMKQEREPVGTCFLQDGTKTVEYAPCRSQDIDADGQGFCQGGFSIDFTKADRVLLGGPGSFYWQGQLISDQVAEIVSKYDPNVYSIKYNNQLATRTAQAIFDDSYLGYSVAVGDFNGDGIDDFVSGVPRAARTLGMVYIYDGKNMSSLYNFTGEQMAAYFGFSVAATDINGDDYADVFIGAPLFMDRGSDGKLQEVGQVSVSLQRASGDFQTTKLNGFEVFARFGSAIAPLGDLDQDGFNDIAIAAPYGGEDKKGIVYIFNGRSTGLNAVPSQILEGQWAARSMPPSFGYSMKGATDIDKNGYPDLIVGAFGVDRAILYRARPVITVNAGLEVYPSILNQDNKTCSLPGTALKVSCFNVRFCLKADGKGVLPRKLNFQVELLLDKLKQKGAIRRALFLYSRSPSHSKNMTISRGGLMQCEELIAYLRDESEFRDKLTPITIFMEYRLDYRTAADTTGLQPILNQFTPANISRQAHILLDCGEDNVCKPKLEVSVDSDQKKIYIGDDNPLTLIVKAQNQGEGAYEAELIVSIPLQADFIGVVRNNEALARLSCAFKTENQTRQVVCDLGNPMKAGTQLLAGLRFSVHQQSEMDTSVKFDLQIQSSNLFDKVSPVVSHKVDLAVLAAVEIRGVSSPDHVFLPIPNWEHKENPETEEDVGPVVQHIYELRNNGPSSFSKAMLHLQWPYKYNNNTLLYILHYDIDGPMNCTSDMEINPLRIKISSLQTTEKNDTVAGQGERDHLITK
T2 sequence (P06756 891-1048 partner limits assumed): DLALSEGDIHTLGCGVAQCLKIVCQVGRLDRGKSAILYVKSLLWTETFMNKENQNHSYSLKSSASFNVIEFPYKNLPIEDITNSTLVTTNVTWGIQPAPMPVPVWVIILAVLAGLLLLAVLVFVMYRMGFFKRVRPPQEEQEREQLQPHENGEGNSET
T2 sequence (P05106 27-788): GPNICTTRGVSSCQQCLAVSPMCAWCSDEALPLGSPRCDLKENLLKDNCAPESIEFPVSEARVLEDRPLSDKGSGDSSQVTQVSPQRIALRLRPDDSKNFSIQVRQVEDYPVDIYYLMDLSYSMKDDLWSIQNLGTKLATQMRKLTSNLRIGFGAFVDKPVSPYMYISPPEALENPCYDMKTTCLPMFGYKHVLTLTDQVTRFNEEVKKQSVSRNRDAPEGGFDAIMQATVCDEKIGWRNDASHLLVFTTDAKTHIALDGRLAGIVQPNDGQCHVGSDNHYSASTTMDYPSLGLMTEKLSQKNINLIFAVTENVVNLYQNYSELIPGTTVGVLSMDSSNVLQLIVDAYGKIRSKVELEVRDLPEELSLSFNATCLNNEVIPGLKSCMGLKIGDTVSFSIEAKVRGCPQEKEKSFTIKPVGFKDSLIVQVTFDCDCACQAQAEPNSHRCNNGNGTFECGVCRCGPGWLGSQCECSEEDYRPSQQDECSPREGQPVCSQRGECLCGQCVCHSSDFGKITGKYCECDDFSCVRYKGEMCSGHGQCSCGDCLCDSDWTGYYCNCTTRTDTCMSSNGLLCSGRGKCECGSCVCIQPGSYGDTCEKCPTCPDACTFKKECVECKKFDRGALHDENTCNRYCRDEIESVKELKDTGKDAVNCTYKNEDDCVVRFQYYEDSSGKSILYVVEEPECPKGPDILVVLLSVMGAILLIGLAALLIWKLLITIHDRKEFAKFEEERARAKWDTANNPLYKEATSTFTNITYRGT
T3 sequence (P06756 31-889 limits assumed): as the sequence (P06756 31-889 limits assumed) above
T3 sequence (P06756 891-1048 partner limits assumed): as the sequence (P06756 891-1048 partner limits assumed) above
T3 sequence (P05106 27-788): as the sequence (P05106 27-788) above
T1 sequence (P08514 32-887 limits assumed): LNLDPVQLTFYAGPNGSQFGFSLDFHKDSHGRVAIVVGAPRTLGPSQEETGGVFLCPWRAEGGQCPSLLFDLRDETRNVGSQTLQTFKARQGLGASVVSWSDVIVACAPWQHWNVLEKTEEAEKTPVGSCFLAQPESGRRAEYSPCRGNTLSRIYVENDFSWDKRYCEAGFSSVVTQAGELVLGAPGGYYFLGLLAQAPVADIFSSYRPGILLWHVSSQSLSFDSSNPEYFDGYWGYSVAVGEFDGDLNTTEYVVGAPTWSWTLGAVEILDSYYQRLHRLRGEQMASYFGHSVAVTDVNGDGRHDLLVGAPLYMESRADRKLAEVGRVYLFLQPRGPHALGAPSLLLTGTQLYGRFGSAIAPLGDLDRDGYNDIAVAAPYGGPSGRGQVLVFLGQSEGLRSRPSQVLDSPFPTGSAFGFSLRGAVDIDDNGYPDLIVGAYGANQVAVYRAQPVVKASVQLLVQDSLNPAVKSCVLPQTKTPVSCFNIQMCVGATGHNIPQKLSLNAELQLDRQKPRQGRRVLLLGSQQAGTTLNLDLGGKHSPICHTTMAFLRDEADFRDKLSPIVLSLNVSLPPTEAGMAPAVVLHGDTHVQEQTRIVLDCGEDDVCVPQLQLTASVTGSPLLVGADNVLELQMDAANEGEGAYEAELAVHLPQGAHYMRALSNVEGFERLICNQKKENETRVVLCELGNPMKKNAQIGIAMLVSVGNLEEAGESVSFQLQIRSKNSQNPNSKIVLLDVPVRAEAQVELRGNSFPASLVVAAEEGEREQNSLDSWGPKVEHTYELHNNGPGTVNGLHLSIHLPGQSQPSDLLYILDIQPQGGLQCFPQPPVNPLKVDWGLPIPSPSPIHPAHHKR
T1 sequence (P08514 891-1039 partner limits assumed): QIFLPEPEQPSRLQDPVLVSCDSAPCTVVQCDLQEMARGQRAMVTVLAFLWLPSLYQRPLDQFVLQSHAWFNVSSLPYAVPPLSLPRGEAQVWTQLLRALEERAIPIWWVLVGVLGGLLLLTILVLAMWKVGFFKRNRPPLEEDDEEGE
T1 sequence (P05106 27-788): as the sequence (P05106 27-788) above

For the molecule `CCOC(=O)CC1CCc2cc(OCCCNC(=N)N)ccc2C1` (stereo not drawn) [Example 31, [6-(3-Guanidinopropoxy)-1,2,3,4-tetrahydro-napthalen-2-yl]-acetic Acid Ethyl Ester], at αIIbβ3 integrin (setting [2]), the IC50 came out at 160 µM. Moreover, the remaining activity at 30 µM in assay [1] (setting [3]) came out at 88%. Besides, the remaining activity at 100 µM at αVβ3 integrin (setting [4]) worked out at 100%.
Take `N=C(N)NCCCCNC(=O)c1ccc2c(c1)NC(=O)C(CC(=O)O)C2` (stereo not drawn) [Example 202, [7-(4-Guanidino-butylcarbamoyl)-2-oxo-1,2,3,4-tetrahydro-quinolin-3-yl]-acetic Acid Hydrochloride]: the inhibition at 240 µM in the assay with osteoclasts (Rattus norvegicus, Osteoclast, @ 240 μM) turned out to be 37%. Besides, the results for the IC50 on αIIbβ3 integrin (setting [2]) and on αVβ3 integrin (setting [5]) were 87 µM and 86 µM, respectively. The remaining activity at 30 µM in assay [1] (setting [3]) came out at 50%.
Consider `N=C(N)NCCCCOc1ccc2c(c1)CC(CC(=O)O)C(=O)N2` (stereo not drawn) [Example 229, [6-(4-Guanidino-butoxy)-2-oxo-1,2,3,4-tetrahydro-quinolin-3-yl]-acetic Acid], for which the inhibition at 214 µM in the assay with osteoclasts (Rattus norvegicus, Osteoclast, @ 214 μM) was determined as 2%. Further, the IC50 at αIIbβ3 integrin (setting [2]) is 146 µM. Moreover, in assay [1] (setting [3]), the remaining activity at 30 µM stood at 100%. The remaining activity at 100 µM at αVβ3 integrin (setting [4]) turned out to be 82%.
With Echistatin [reference compound], at αIIbβ3 integrin (setting [6]), the IC50 turned out to be 0.0156 µM.
`O=C(O)CC1CCc2cc(OCCCNc3ncccn3)ccc2C1` (stereo not drawn) [Example 213, {6-[3-(Pyrimidin-2-ylamino)-propoxy]-1,2,3,4-tetrahydro-naphthalen-2-yl}-acetic Acid]: the remaining activity at 100 µM in assay [1] (setting [3]) was 54%.
Turning to `N=C(N)NCCC[C@H](N)C(=O)NCC(=O)N[C@@H](CC(=O)O)C(=O)N[C@@H](Cc1ccccc1)C(=O)O` [RGDF, reference compound] (H-RGDF-OH; N-terminus and C-terminus assumed), at αIIbβ3 integrin (setting [6]), the IC50 is 97.6 µM.
As to GRGESP [reference compound], on αIIbβ3 integrin (Table VI), the “ability to inhibit ADP induced platelet aggregation” value is listed as “Inactive at 200”. Also, in assay [1] (reference peptide, at 100 μm), the “ability to inhibit αVβ3 binding” value is “inactive at 100 μm”.
As for `N=C(N)NCCOc1ccc2c(c1)CC(CCC(=O)O)C(=O)N2` (stereo not drawn) [Example 222, 3-[6-(2-Guanidino-ethoxy)-2-oxo-1,2,3,4-tetrahydro-quinolin-3-yl]-propionic Acid], the inhibition at 22 µM in the assay with osteoclasts (Rattus norvegicus, Osteoclast, @ 22 μM) was -58%. Also, the remaining activity at 200 µM at αIIbβ3 integrin (Table VII) was determined as 90.3%. Besides, the remaining activity at 100 µM at αVβ3 integrin (setting [4]) was determined as 100%.
On to GRGDNP [GRGDNP, reference compound], for which the “ability to inhibit ADP induced platelet aggregation” value on αIIbβ3 integrin (Table VI) is given as “Inactive at 200”. Also, in assay [1] (setting [7]), the IC50 stood at 0.237 µM.
With `N=C(N)NCCOc1ccc2cc(CC(=O)O)c(=O)[nH]c2c1` [Example 185, [7-(2-Guanidino-ethoxy)-2-oxo-1,2-dihydro-quinolin-3-yl]-acetic Acid], the inhibition at 239 µM in the assay on osteoclasts (Rattus norvegicus, Osteoclast, @ 239 μM) amounted to 58%. The remaining activity at 200 µM at αIIbβ3 integrin (Table VII) is 94.8%. Moreover, the remaining activity at 20 µM on αVβ3 integrin (@ 20 μM, % of maximal attachment, read-out: (αVβ3) CELL ATTACHMENT, % @ concentration) was found to be 102%. For the same molecule, the remaining activity at 100 µM at αVβ3 integrin (setting [4]) was 96.8%.
As to `COC(=O)CC1CCc2cc(OCCCNc3ncccn3)ccc2C1` (stereo not drawn) [Example 212, {6-[3-(Pyrimidin-2-ylamino)-propoxy]-1,2,3,4-tetrahydro-naphthalen-2-yl}-acetic Acid Methyl Ester], the remaining activity at 3 µM in assay [1] (@ 3 μM, % Max = percentage of the specific binding, read-out: (αVβ3) RECEPTOR BINDING, % @ concentration) was found to be 98.7%. Further, in assay [1] (@ 10 μM, % Max = percentage of the specific binding, read-out: (αVβ3) RECEPTOR BINDING, % @ concentration), the remaining activity at 10 µM was 98.3%. Moreover, in assay [1] (setting [3]), the remaining activity at 30 µM stood at 102% and the remaining activity at 100 µM is 99.3%.
As to `CCOC(=O)CC1CCc2cc(OCCCNC3=NCCCN3)ccc2C1` (stereo not drawn) [Example 216, {6-[3-(1,4,5,6-Tetrahydro-pyrimidin-2-ylamino)-propoxy]-1,2,3,4-tetrahydro-naphthalen-2-yl}-acetic Acid Ethyl Ester, Acetic Acid Salt], the inhibition at 200 µM in the assay with osteoclasts (Rattus norvegicus, Osteoclast, @ 200 μM) was determined as 95%. Moreover, the half-inhibitory concentration (IC50) in assay [1] (setting [8]) came out at 60 µM.
Take `N=C(N)NCCCCOc1ccc2c(c1)CCCC(CC(=O)O)C2` (stereo not drawn) [Example 63, [2-(4-Guanidino-butoxy)-6,7,8,9-tetrahydro-5H-benzocyclohepten-6-yl]-acetic Acid Trifluoroacetate]: the remaining activity at 200 µM on αIIbβ3 integrin (Table VII) is 51.5%. Further, the IC50 turned out to be 3.9 µM in assay [1] (setting [8]) and 32.8 µM on αVβ3 integrin (setting [5]).
As to “Calcitonin: anti-resorptive used in the clinic; reference compound of the bone pitting test is Rat Calcitonin (CGNLSTCMLGTYTQDLNKFHTFPQTSIGVGAP; ends and bridges not checked; cysteine pairing not given here; UniProt P01257 85-116, looked up) [reference compound]”, the “osteoclast inhibitory activity in this test procedure” value in the assay on osteoclasts (statement in words) is reported as “significant osteoclast inhibitory activity”.
Take “[7-(2-Guanidino-ethoxy)-2-oxo-1,2-dihydro-quinolin-3-yl]propionic Acid Methyl Ester [Example 246]”: the “BONE PITTING INHIBITION” value in the assay on osteoclasts (@ 26.2 μM) is listed as 52%@ 26.2. Besides, the “(αVβ3) CELL ATTACHMENT, % @ concentration” value on αVβ3 integrin (@ 20 μM, % of maximal attachment) is listed as 102%@ 20; on αVβ3 integrin (@ 100 μM, % of maximal attachment), 84.2%@ 100.
As to `N=C(N)NCCC[C@H](NC(=O)CN)C(=O)NCC(=O)N[C@@H](CC(=O)O)C(=O)N[C@@H](CO)C(=O)N1CCC[C@H]1C(=O)O` [GRGDSP, reference compound], at αIIbβ3 integrin (Table VI), the “ability to inhibit ADP induced platelet aggregation” value is given as “Inactive at 200”.
Take GRGDTP [GRGDTP, reference compound]: the “ability to inhibit ADP induced platelet aggregation” value on αIIbβ3 integrin (Table VI) is “Inactive at 200”. Further, the IC50 in assay [1] (setting [7]) stood at 0.49 µM; against αVβ3 integrin, 5.2 µM.
As for `Cc1ccc(S(=O)(=O)NC(=O)CC2CCc3cc(OCCCNC4=NCCCN4)ccc3C2)cc1` (stereo not drawn) [Example 217, 4-Methyl-N-({6-[3-(1,4,5,6-tetrahydro-pyrimidin-2-ylamino)-propoxyl]1,2,3,4-tetrahydro-naphthalen-2-yl}-acetyl)-benzenesulfonamide, Trifluoroacetic Acid Salt], in the assay on osteoclasts (Rattus norvegicus, Osteoclast, @ 1 μM), the inhibition at 1 µM was determined as 51%. Also, the remaining activity at 200 µM on αIIbβ3 integrin (Table VII) was determined as 98%. The IC50 in assay [1] (setting [8]) was 14.7 µM.

The values above are taken from patent publication US20030109523A1, “Bicyclic antagonists selective for the alphavbeta3 integrin” (Wyeth, priority 1999, published 2003).
